Results published in patent US10758609B2, “Cross-reactive T-cell epitopes of HIV, SIV, and FIV for vaccines in humans and cats” (priority 2015, dated 2020).
Residues, ends and D or L forms follow the SMILES beside them.

Legend:
[1] = test system: CD8^+ T cells from HIV^+ subjects; assay: FACS-based intracellular staining (ICS) for cytolysin (perforin) and cytotoxins (GrzA, GrzB) in CD8+ T cells; details: HIV+ human subjects; for CyCD8: CD8+ T-cell cytolysin/cytotoxins (perforin, GrzA & B), frequency of responders: HIV-1 epitope peptide, threshold ≥0.2%
Experimental: (§1) The overlapping peptide pools of FIV and HIV-1 structural and enzyme proteins were used to stimulate the […] (PBMC) and the T cells from HIV^+ subjects as previously described for epitope mapping of HIV-1 and FIV p24 and reverse transcriptase (RT) (Sanou et al., 2013; Roff et al., 2015). The individual peptides in those peptide pools with positive responses to either interferon-γ (IFNγ) production and/or T-cell proliferation were determined with IFNγ ELISpot analysis and CFSE-based CD3^+CD4^+ and CD3^+CD8^+ T-cell proliferation analyses followed by the FACS-based intracellular staining (ICS) for cytolysin (perforin) and cytotoxin (granzyme A [GrzA] and GrzB) (Sanou et al., 2013; Roff et al., 2015). Besides viral p24 and RT proteins, the identical approach was used to identify anti-HIV/FIV T-cell epitopes on viral matrix (MA), nucleocapsid (NC), protease (PR), RNAase, integrase (IN), surface envelope (SU Env), and transmembrane envelope (TM Env) (FIG. 12).
(§2) Since our goal is to develop HIV vaccine for human use, the HIV peptides (Table 10) counterpart of the cross-reactive FIV peptides shown in Table 9 were tested with PBMC and T cells from HIV^+ subjects. The immune functions analyzed were human IFNγ production by ELISpot, cytolysin/cytotoxin production by ICS, and CFSE-based proliferation of CD3^+CD4^+ and CD3^+CD8^+ T cells from HIV^+ subjects (Table 10, the first set of results). In addition, the Los Alamos National Laboratories (LANL) database was used to identify the HLA allele(s) of the HIV epitope sequence with CTL activity that can exist within the sequence of the conserved counterpart HIV peptide (Table 9, LANL CTL). The bold HLA class-I supertypes and the bold 2-digit alleles are those on the “Optimal CD8^+ CTL Epitopes” list and those without bold are alleles for potential CTL epitope. […] The HLA class II such as HLA-DRB1 has yet to be fully classified into supertypes, and therefore the 4-digit resolution nomenclatures for the HLA-DRB1 alleles are shown.
(§3) The threshold for positive IFNγ and IL2 ELISpot responses is ≥50 spot-forming units (SFU) per 10^6 PBMC. The threshold for CFSE-based CD4^+ and CD8^+ T-cell proliferation is ≥2% CD4^+ T-cell CFSE^low or CD8^+ T-cell CFSE^low. The threshold of FACS-based intracellular cytokine staining (ICS) is ≥0.2%. […] The nine FIV peptides in black were used in the current MAP vaccine trial, whereas the 13 peptides in blue were not used. […] The MAPs and their corresponding peptide(s) were also tested for their ability to enhance or suppress in vitro FIV infection of feline PBMC (E/S of peptides and E/S of MAP).
(§4) The counterpart HIV-1 peptides of the FIV peptides were also tested for immunogenicity using PBMC and T cells from HIV^+ human subjects. […] The HRT7-1 and HRT7-2 were also tested with cells from HIV^+ subjects on ART. The threshold for positive IFNγ ELISpot response is ≥75 spot-forming units (SFU) per 10^6 PBMC. The threshold for CFSE-based CD4^+ (CD4^+ T) and CD8^+ (CD8^+ T) T-cell proliferation is ≥2% CD4^+ T-cell CFSE^low or CD8^+ T-cell CFSE^low. The threshold of intracellular cytokine staining (ICS) of FACS-based cytolysin (perforin) and cytotoxins (granzymes A and B) in CD4^+ T cells (CyCD4) and CD8^+ T cells (CyCD8) is ≥0.2%. […] The nine HIV-1 peptides in black are the counterpart FIV peptides used in the current MAP vaccine trial, whereas the 13 peptides in blue were not.

[2] = test system: CD4^+ T cells from HIV^+ subjects; details: HIV+ human subjects; for CyCD4: CD4+ T-cell cytolysin/cytotoxins (perforin, GrzA & B), frequency of responders: HIV-1 epitope peptide, threshold ≥0.2%; for CyCD4 (cytolysin and cytotoxin production of CD4+ T cells), frequency of responders: HIV-1 peptides
Experimental: as §1, §2, §4

PBMC from HIV^+ subjects = assay: IFNγ ELISpot of PBMC from HIV+ human subjects; format: cell-based
Experimental: as §1, §2
In addition, these peptides were also analyzed for IFNγ production, CD4^+ and CD8^+ T-cell proliferation, and cytolysin (perforin) and cytotoxin (granzyme A (GrzA) and GrzB)) mRNA production of PBMC or T cells from 8-30 HIV^+ human subjects. The frequency of responders is based on the individual responses of the vaccinated cats or HIV^+ human subjects after subtraction of the average of the responses of PBMC or T cells from 6-8 non-vaccinated cats or 8-20 HIV-negative human subjects.
as §3
The counterpart HIV-1 peptides of the FIV peptides were also tested for immunogenicity using PBMC and T cells from HIV^+ human subjects. […] The HRT7-1 and HRT7-2 were also tested with cells from HIV^+ subjects on ART. The threshold for positive IFNγ ELISpot response is ≥75 spot-forming units (SFU) per 10^6 PBMC. The threshold for CFSE-based CD4^+ (CD4^+ T) and CD8^+ (CD8^+ T) T-cell proliferation is ≥2% CD4^+ T-cell CFSE^low or CD8^+ T-cell CFSE^low. The threshold of intracellular cytokine staining (ICS) of FACS-based cytolysin (perforin) and cytotoxins (granzymes A and B) in CD4^+ T cells (CyCD4) and CD8^+ T cells (CyCD8) is ≥0.2%.

[3] = test system: CD3^+CD8^+ T cells from HIV^+ subjects; assay: CFSE-based CD3+CD8+ T-cell proliferation, HIV+ human subjects
Experimental: as §1, §2, §3, §4

[4] = test system: CD3^+CD4^+ T cells from HIV^+ subjects; assay: CFSE-based CD3+CD4+ T-cell proliferation, HIV+ human subjects
Experimental: as §1, §2, §3, §4

[5] = HIV-1 epitope peptide, threshold ≥2% CFSElow

Compound	CyCD8: CD8+ T-cell cytolysin/cytotoxins (perforin, GrzA & B), frequency of responders [1]	CyCD4: CD4+ T-cell cytolysin/cytotoxins (perforin, GrzA & B), frequency of responders [2]	CyCD4 (cytolysin and cytotoxin production of CD4+ T cells), frequency of responders [2]	CyCD7, frequency of responders ([1]; HIV-1 peptides)	IFNγ, frequency of responders (PBMC from HIV^+ subjects; HIV-1 epitope peptide, threshold ≥75 SFU per 10^6 PBMC)	IFNγ, frequency of responders (PBMC from HIV^+ subjects; HIV-1 peptides)	CD8+ T proliferation, frequency of responders [3, 5]	CD8^+ T (T-cell proliferation), frequency of responders ([3]; HIV-1 peptides)	CD4+ T proliferation, frequency of responders [4, 5]	CDC4^+ T (T-cell proliferation), frequency of responders ([4]; HIV-1 peptides)
CC[C@H](C)[C@H](NC(=O)[C@H](CC(=O)O)NC(=O)[C@@H](NC(=O)[C@H](C)NC(=O)[C@@H](NC(=O)[C@@H](NC(=O)[C@H](CC(=O)O)NC(=O)[C@@H](NC(=O)[C@@H](NC(=O)[C@H](CCCNC(=N)N)NC(=O)[C@H](CCC(=O)O)NC(=O)CN)[C@@H](C)CC)C(C)C)[C@@H](C)CC)[C@@H](C)CC)[C@@H](C)O)C(=O)N[C@@H](CCC(N)=O)C(=O)N[C@H](C(=O)N[C@@H](CCCCN)C(=O)O)[C@@H](C)O [HIN7-1] (H-GERIVDIIATDIQTK-OH; N-terminus and C-terminus assumed)	+ (12.5%-25% (+))	− (0%-1.4% (−))	— (0%-1.4%(—))	–	–	–	–	–	–	–
KKDSTKWRKLVDFRE [HRT3-3]	++++ (>54% (++++))	++++ (>54% (++++))	++++ (>54% (++++))	++++ (>54% (++++))	+ (12.5%-25% (+))	+ (12.5%-25% (+))	+++ (40.1%-54% (+++))	+++ (40.1%-54% (+++))	++ (25.1%-40% (++))	++ (25.1%-40% (++))
CC[C@H](C)[C@H](NC(=O)[C@H](CCCNC(=N)N)NC(=O)[C@@H](N)CC(C)C)C(=O)N[C@H](C(=O)N[C@@H](Cc1ccccc1)C(=O)N[C@@H](C)C(=O)N[C@H](C(=O)N[C@@H](CC(C)C)C(=O)N[C@@H](CO)C(=O)N[C@H](C(=O)N[C@H](C(=O)N[C@@H](CC(N)=O)C(=O)N[C@@H](CCCNC(=N)N)C(=O)N[C@H](C(=O)N[C@@H](CCCNC(=N)N)C(=O)N[C@@H](CCC(N)=O)C(=O)O)C(C)C)C(C)C)[C@@H](C)CC)C(C)C)C(C)C [HTM8(20)] (H-LRIVFAVLSIVNRVRQ-OH; N-terminus and C-terminus assumed)	− (0%-1.4% (−))	− (0%-1.4% (−))	–	–	–	–	–	–	–	–
CC[C@H](C)[C@H](NC(=O)[C@H](C)NC(=O)[C@@H]1CCCN1C(=O)[C@H](CO)NC(=O)CNC(=O)[C@H](CCCCN)NC(=O)[C@H](Cc1c[nH]c2ccccc12)NC(=O)CNC(=O)[C@H](CCC(N)=O)NC(=O)[C@@H]1CCCN1C(=O)[C@H](CC(C)C)NC(=O)[C@@H](NC(=O)[C@@H](N)CC(N)=O)C(C)C)C(=O)N[C@@H](Cc1ccccc1)C(=O)O [HRT7-2]	− (0%-1.4% (−))	− (0%-1.4% (−))	–	–	–	–	–	–	–	–
